Measurements reported in PMC11510591, “In Vitro Evaluation of Pharmacokinetic Properties of Selected Dual COX-2 and 5-LOX Inhibitors” (Pharmaceuticals, 2024).
Where two headings read alike, the source gives them in different places.

Experiments:
[1] = BMC, Brij 35 mobile phase pH 5.5, 36.5 °C, C18 column
Experimental: BMC was performed using polyoxyethylene lauryl ether (Brij 35) as the most frequently used surfactant in this method. All other parameters (pH, temperature, and salinity) were set to achieve physiological conditions. The retention of compounds is mostly influenced by their lipophilicity and their interactions with both the modified stationary phase and the micelles in the mobile phase. Therefore, the elution behavior is determined by the combined effects of micelles, the stationary phase, and water. An important factor for this method is finding the optimal balance between organic solvent and aqueous phase.
BMC was performed on an Agilent 1200 Series (Agilent Technologies, Santa Clara, CA, USA) supplied with a binary pump, manual injector (20 µL), and DAD detector (190–950 nm) using a C18 column (ZORBAX Extend-C18 Analytical 4.6 × 150 mm; 5 µm, Agilent Technologies, Santa Clara, CA, USA). Mobile phase was a combination of aqueous phase (40 mmol/L solution of Brij 35 in 7 mmol/L Na2HPO4) and acetonitrile (70:30, v/v), and the mobile phase pH was adjusted to 5.5 using o-phosphoric acid. […] Retention factors (k) were calculated according to Equation (1). Column dead time (t0) was the retention time of DMSO at 220 nm, while tR was the retention time of a tested compound. k = (tR − t0)/t0(1)

[2] = PAMPA test (hexadecane membrane), passive gastrointestinal absorption; format: in vitro ADME; settings: donor pH 5.5, acceptor pH 7.4, 5 h, room temperature; for Papp at 5 h, 0.05 mM: PAMPA, read-out: Pe (effective passive permeability coefficient)
Experimental: The PAMPA test uses a 96-well plate coated with an impregnated filter material, forming an artificial membrane that separates donor and acceptor compartments. Egg lecithin in dodecane is commonly used to simulate membrane lipids, while hexadecane is effective for mimicking gastrointestinal membranes. […] Therefore, hexadecane dissolved in hexane was chosen in this study.
The phosphate buffer solution was prepared by dissolving 0.5292 g of NaH2PO4 × H2O and 0.0234 g of Na2HPO4 in purified water (200 mL). The phosphate buffer was divided into two portions, and the pH was adjusted to pH 5.5 and pH 7.4 using o-phosphoric acid. The donor solutions were prepared by diluting the stock solutions (5 mM DMSO solutions) with the buffer pH 5.5 to obtain the final concentration of 0.05 mM (the DMSO concentration in the donor solutions was 1%), while the acceptor solution was prepared as a 1% DMSO solution in the buffer pH 7.4. The use of DMSO as a cosolvent in PAMPA is necessary in cases of low-soluble compounds. It is usually used in concentrations up to 5% [25, 55, 56, 57].
The PAMPA test was performed according to the literature procedure using a 96-well microtiter polycarbonate filter plate (Merck Millipore, Carrigtwohill, Ireland) that was impregnated with 15 µL of a hexadecane/hexane (5:95, v/v) solution [52]. Donor solutions (300 µL per well) were transferred into each well of the donor plate. Acceptor solution was transferred into each well (300 µL per well) of the acceptor plate (MSSACCEPTOR, Millipore, Burlington, MA, USA) and covered by the donor plate to create a PAMPA sandwich. The system was incubated at room temperature for 5 h at a vibratory mixer. After incubation, the PAMPA sandwich was dissociated, and concentrations of all tested compounds in each well, as well as in the starting solutions, were determined using the HPLC method (Section 3.3.1).
The concentrations of tested compounds in the starting solutions, as well as in the donor and acceptor sections after incubation, were determined by the HPLC method on the Dionex Ultimate 3000 (Thermo Fisher Scientific, Waltham, MA, USA) equipped with a quaternary pump, autosampler, and DAD detector using a ZORBAX Eclipse XDB-C18 4.6 × 150 mm, 5 µm column (Agilent Technologies, Santa Clara, CA, USA).
R represents the retention, which is defined as the fraction of the tested compound retained in the PAMPA membrane (filters and plate materials), CD(t) is the concentration of a tested compound in a donor compartment after incubation time t, CA(t) is the concentration of a tested compound in an acceptor compartment after incubation time t, while CD(0) represents the concentration of a tested compound in a donor compartment at the beginning of the incubation (starting solution).

[3] = test system: CD-1 mouse liver microsomes; settings: pH 7.4; for Peak Area, t0: 0 min; for Peak Area, t: 30 min
Experimental: Microsomal stability (and thus susceptibility to metabolism) was tested using microsomes derived from CD-1 mouse liver. According to the applied protocol, both phases of metabolism were activated by the addition of cofactors NADPH and UDP-GlcUA. […] Stock solutions of all tested compounds (5 mM DMSO solutions) were diluted with 0.1 M potassium phosphate buffer pH 7.4 to obtain 0.1 mM solutions, which were further incubated according to the protocol. In order to activate both the 1st and 2nd phases of metabolism, NADPH and UDP-GlcUA were used as cofactors. Tested compounds were incubated at 37 °C for 30 min, and the incubation was quenched immediately after the addition of cofactors (t0) and after the defined incubation time (t) by mixing 100 µL of corresponding incubation mixtures with 200 µL of cold acetonitrile. All compounds were tested in duplicates, and their concentrations were determined using the HPLC-MS/MS method (Section 3.7.1).
The HPLC-MS/MS analysis was performed on the UHPLC chromatograph ACELLA (Thermo Fisher Scientific Inc., Madison, WI, USA), coupled to a triple quadrupole mass spectrometer TSQ Quantum Access MAX (Thermo Fisher Scientific Inc., Madison, WI, USA) with a heated electrospray ionization (HESI) interface. The column used was Zorbax Extend C18 (150 mm × 4.6 mm, 5 µm; Agilent Technologies), which was thermostated at 25 °C. The mobile phase consisted of acetonitrile and 0.1% formic acid (60:40, v/v), with a flow rate of 500 µL/min. The injection volume was 10 µL.

[4] = target: T1, human serum albumin (HSA) (Homo sapiens, UniProt P02768); format: binding; settings: CHIRALPAK HSA column, ammonium acetate buffer pH 7.0/acetonitrile 85:15, 25 °C
T1 construct: purchased Sigma-Aldrich
Experimental: Recently, interactions of many newly synthesized structurally diverse compounds with HSA were successfully studied using this technique. The degree of binding of the tested compounds to HSA was evaluated based on their retention behavior on the stationary phase modified with HSA. The logarithmic values of retention factors (logk) were used to evaluate indirectly and compare the drug–HSA interaction.
HPAC analysis was performed on an Agilent 1200 Series chromatograph (Agilent Technologies, Santa Clara, CA, USA). […] The mobile phase consisted of ammonium acetate buffer (pH 7.0; 0.01 M) and acetonitrile (85:15, v/v). The flow rate was 0.6 mL/min, the temperature was set to 25 °C, and the detection of tested compounds was carried out at 283 nm. Tested compounds were dissolved in DMSO (at a concentration of 1 mg/mL), further diluted with the mobile phase to a final concentration of 0.05 mg/mL, and analyzed in triplicate. The HPAC conditions were selected not only with the aim of achieving satisfactory retention characteristics of all synthesized compounds but also taking into account recommendations of a column manufacturer. Retention factors were calculated using Equation (1), where t0 (column dead time) was the retention time of DMSO at 220 nm.

[5] = target: T1, human serum albumin (HSA); test: Differential pulse voltammetry (DPV), interaction with HSA; format: binding; settings: compound 0.05 mmol/L, PBS pH 7.4, HSA 0.05–10 μmol/L
Experimental: The electrochemical oxidation of the tested compounds at a concentration of 0.05 mmol/L in PBS buffer pH 7.4 was investigated by differential pulse voltammetry (DPV). […] For all tested compounds, a preliminary study of the interaction with HSA was performed at a concentration of 0.05 mmol/L and different HSA concentrations (0.05–10 μmol/L) using DPV. […] It has been reported that the shift in the potential of an electroactive ligand is a suitable criterion to determine the mode of the macromolecule–ligand interaction. In this context, a positive shift in potential is an indication of hydrophobic interaction of investigated compounds with HSA [34]. The decrease in peak current could be due to the formation of a non-electroactive supramolecular compound by the drug–protein interaction, which reduces the concentration of free drug.
The voltammetric measurements were carried out with the µAutolab analyzer (EcoChemie, Utrecht, The Netherlands). A three-electrode system with a GCE working electrode, an Ag/AgCl reference electrode, and a Pt-auxiliary electrode was used. Before each experiment, the GCE was manually polished with an aqueous slurry of Al2O3 powder (particle size of 0.05 μm) on a smooth polishing pad, sonicated in deionized water, and then treated in absolute ethanol. Phosphate buffer saline (PBS) pH 7.4 was used as the supporting electrolyte. The experiments were carried out with deaerated PBS buffer. A stock solution of HSA in PBS at a concentration of 0.1 mmol/L was used. […] The interaction between tested compounds and HSA was examined in PBS solution, using solutions of tested compounds in a concentration of 0.05 mmol/L and HSA solution with a concentration in the range of 0.05–10 μmol/L.
The percentage of free compound (Equation (4)) was calculated from the ratio of the current intensity (IINT) for a given compound concentration (0.05 mmol/L) in the presence of albumin to the signal obtained at the same compound concentration only in the presence of the supporting electrolyte (PBS buffer) (IC).

T1 sequence (P02768 25-609): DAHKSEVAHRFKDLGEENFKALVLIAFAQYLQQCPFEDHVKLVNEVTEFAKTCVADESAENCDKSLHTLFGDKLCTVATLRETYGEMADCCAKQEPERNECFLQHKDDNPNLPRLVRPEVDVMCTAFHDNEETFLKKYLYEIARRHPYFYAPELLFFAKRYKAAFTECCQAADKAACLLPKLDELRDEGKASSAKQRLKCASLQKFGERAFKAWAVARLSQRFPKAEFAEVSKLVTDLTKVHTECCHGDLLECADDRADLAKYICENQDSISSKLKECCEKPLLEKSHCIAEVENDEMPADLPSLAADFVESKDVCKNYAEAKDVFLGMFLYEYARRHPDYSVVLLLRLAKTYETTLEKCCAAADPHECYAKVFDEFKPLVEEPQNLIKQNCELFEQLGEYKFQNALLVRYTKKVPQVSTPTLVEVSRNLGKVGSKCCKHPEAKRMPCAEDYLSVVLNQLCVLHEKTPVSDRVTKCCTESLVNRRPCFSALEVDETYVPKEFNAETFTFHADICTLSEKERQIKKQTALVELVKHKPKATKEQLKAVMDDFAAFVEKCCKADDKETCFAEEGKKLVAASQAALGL

| Retention factors (k) [1] | Papp at 5 h, 0.05 mM [2] | –logPe [2] | –logPe ([2]; listed as indomethacin) | Peak Area, t0 [3] | Peak Area, t [3] | –logPe ([2]; listed as flurbiprofen) | Retention Factors (logk) [4] | Retention Factors (logk) ([4]; listed as flurbiprofen) | % Bound Drug [5] | ΔE, DPV peak potential shift after interaction with HSA [5] | Retention factors (k) ([1]; listed as diclofenac) | –logPe ([2]; listed as diclofenac) | SMILES | –logPe ([2]; listed as ibuprofen) |
| --- | --- | --- | --- | --- | --- | --- | --- | --- | --- | --- | --- | --- | --- | --- |
| 10.20 ± 0.03 | 386 ×10⁻⁶ cm/s | 3.41 ± 0.05 | ≤ 3.46 | 241.9 ± 2.5 ×10^3 | 206.9 ± 9.0 ×10^3 |  |  |  |  |  |  |  | COc1ccc2c(c1)c(CC(=O)O)c(C)n2C(=O)c1ccc(Cl)cc1 [Indomethacin, indomethacin, reference compound] |  |
| 7.14 ± 0.02 | > 400 ×10⁻⁶ cm/s | <3.40 |  |  |  | ≤ 3.46 | 11.03 ± 0.02 | 11.03 | Electrochemically inactive | Electrochemically inactive |  |  | CC(C(=O)O)c1ccc(-c2ccccc2)c(F)c1 (stereo not shown) [Flurbiprofen, flurbiprofen] |  |
| 8.25 ± 0.00 | > 400 ×10⁻⁶ cm/s | <3.40 |  | 126.2 ± 2.8 ×10^3 | 99.7 ± 5.3 ×10^3 |  |  |  |  |  | 8.25 | ≤ 3.46 | O=C(O)Cc1ccccc1Nc1c(Cl)cccc1Cl [Diclofenac, diclofenac] |  |

| SMILES | Retention factors (k) [1] | Papp at 5 h, 0.05 mM [2] | –logPe [2] | –logPe ([2]; listed as indomethacin) | Peak Area, t0 [3] | Peak Area, t [3] | –logPe ([2]; listed as flurbiprofen) | Retention Factors (logk) [4] | Retention Factors (logk) ([4]; listed as flurbiprofen) | % Bound Drug [5] | ΔE, DPV peak potential shift after interaction with HSA [5] | Retention factors (k) ([1]; listed as diclofenac) | –logPe ([2]; listed as diclofenac) | –logPe ([2]; listed as ibuprofen) |
| --- | --- | --- | --- | --- | --- | --- | --- | --- | --- | --- | --- | --- | --- | --- |
| CC(C)Cc1ccc(C(C)C(=O)O)cc1 (stereo not shown) [Ibuprofen, ibuprofen] | 13.36 ± 0.00 | > 400 ×10⁻⁶ cm/s | <3.40 |  |  |  |  |  |  |  |  |  |  | ≤ 3.46 |
